Legend:
300.19 cells = experiment: Cytotoxicity assay, propidium iodide based flow cytometry; format: cell-based; settings: for cytotoxicity, percentage of cells staining positive for PI: 50 μM test compound; for cytotoxicity in dose response below 50 μM: 10 μM, 5 μM and 1 μM tested
Procedure: Cytotoxicity Assay Method: To determine the potential for test compound cytotoxicity to influence cell intracellular calcium mobilization and chemotaxis, cell cytotoxicity was assessed using propidium iodide (PI) based flow cytometry. Propidium iodine is impermeable to intact cell membranes and thus its lack of intercalation into DNA (which increases PI fluorescence) is a positive indicator of cell viability. Cytotoxicity values are presented as percentage of cells staining positive for PI. Lower values of fluorescence indicate less cytotoxicity. All assays were performed a minimum of four times; error bars represent the standard deviation of the mean.

BLT1 [1] = biological target: T1, BLT1 (Homo sapiens, UniProt Q15722); experiment: Intracellular calcium mobilization assay, cells expressing BLT1, LTB4; format: cell-based; settings: LTB4-mediated
Procedure: (§1) Intracellular Calcium Mobilization Assay Method: The intracellular calcium mobilization assay used 300.19 cells which stably expressed hCXCR4-GFP, as described previously in Pello et al. (2008). Cells were loaded with INDO-I and then pretreated with the 50 μM of the test compound for 60 seconds prior to stimulation of intracellular calcium mobilization with an optimized concentration of CXCL12. […] The value Δ florescence is the difference between (a) the fluorescence ratio from cells before exposure to CXCL12 at its optimized concentration and (b) the fluorescence ratio from cells following stimulation with the optimized concentration of CXCL12. Decreases in Δ florescence correspond to decreases in intracellular calcium mobilization, and therefore, decreased signaling. As CXCL12 concentration was optimized for each test compound, results are presented as normalized Δ florescence which is Δ fluorescence divided by the fluorescence ratio of optimized CXCL12-only stimulation. In some instances, the IC50 concentration (concentration at which intracellular calcium mobilization is reduced to 50% of the Δ fluorescence of the CXCL12 plus DMSO control) of the test compounds was determined. All assays were performed a minimum of four times; error bars represent the standard deviation of the mean.
At 50 μM test compound concentrations in BLT1-expressing cells, I-44 (0.040) and I-46 (0.017) inhibited intracellular calcium mobilization.

MCF7 cells = experiment: MTT cell proliferation assay, MCF7; format: cell-based, human; settings: 4 days; for IC50: Homo sapiens, MCF7, 96 h
Procedure: (§2) To determine the potential for compounds to impact the proliferation of cells, cell growth was assessed capacity using the 3-(4,5-dimethylthiazol-2-yl)-2,5-diphenyltetrazolium bromide (MTT) assay. The effect of these compounds was determined for four cell lines: HS27, a “normal” fibroblast cell line; MCF7, an estrogen-dependant non-metastatic breast cancer cell line; MDA-MB-231, an estrogen-independent metastatic breast cancer cell line; and A549, a lung cancer cell line. Cells were left untreated, treated with 12.5 mM DMSO, or treated with varying concentrations of four compounds, (I-9, I-25, I-36, and I-37), then incubated for 4 days, before analysis. Absorbance at 490 nm represents proliferating cells. For samples using compounds, these values are normalized to untreated samples.

hCXCR4-GFP [2] = experiment: Intracellular calcium mobilization assay, hCXCR4-GFP expressing 300.19 cells, CXCL12; format: cell-based, human; settings: 50 μM test compound
Procedure: as §1

hCXCR4-GFP [3] = biological target: T2, hCXCR4-GFP (Homo sapiens, UniProt P61073); experiment: as above; format: cell-based; parameters: IC50 of intracellular calcium mobilization, CXCR4; other: CXCL12-mediated; other: 50 μM test compound; normalized Δ fluorescence (CXCR4, intracellular calcium mobilization); other: 50 μM test compound, 60 seconds pretreatm; settings: CXCL12-mediated; read-out: IC50 of intracellular calcium mobilization, CXCR4
Procedure: as §1

MDA-MB-231 cells = experiment: MTT cell proliferation assay, MDA-MB-231; format: cell-based, human; settings: 4 days; for IC50: Homo sapiens, MDA-MB-231, 96 h
Procedure: as §2

HS27 cells = experiment: MTT cell proliferation assay, HS27; format: cell-based, human; settings: 4 days, normal fibroblast cell line
Procedure: as §2

A549 cells = experiment: MTT cell proliferation assay, A549; format: cell-based, human; settings: 4 days; for IC50: Homo sapiens, A549, 96 h
Procedure: as §2

TC-1 tumor cells = format: in vivo; settings: 5 mg/kg i.p. every day for 21 days; versus PBS or Vehicle controls
Excerpt: Development of Animal Model for CXCR4 Dependent Cancer Metastasis in Lungs: To establish a CXCR4 dependent lung tumor metastasis model, we first screened several cancer cell lines that are known to metastasize to lungs in mice models to determine which cancer cell lines endogenously express CXCR4 receptor. The mice cell lines screened were Lewis lung carcinoma, B16F10 melanoma, and TC-1 cervical carcinoma. Mice cell lines were screened using flow cytometry-based surface receptor staining using a fluorochrome labeled antibody to mouse CXCR4 receptor. […] The TC-1 cell line was generated by transfection of murine lung squamous epithelial cells by Human pappillomavirus (HPV) oncogenes E6, E7, and activated Ras.
5 mg/kg body weight of AMD3100, I-28, I-36, or I-38 were also injected at the same dose intra-peritoneal (i.p.) every day for 21 days starting from the day before the tumor cell injection. Mice were sacrificed and lungs were perfused and collected on day 21 post tumor challenge. Lungs were stored in formalin for 16 hrs and then transferred into 70% ethanol until the lung lobes became lucid. All five lung lobes were separated. Tumors were counted using a magnifying glass or a microscope. Tumor sizes were measured using a digital caliper. The total number of tumors counted in all five lung lobes of an individual mouse is reported as the tumor incidence. Mean tumor sizes were added together to calculate cumulative tumor size, which is reported as the tumor burden for each mouse.

[4] = Test for toxicity in mice; format: in vivo; settings: i.p. 5 mg/kg, then 20 or 40 mg/kg two days later; observed over 3 weeks
Procedure: Test for Toxicity: Mice were treated by intra-peritoneal injections of three of compounds I-28, I-36, and I-38 at the first dose of 5 mg/kg of body weight, followed by a second injection of either 20 mg/kg of body weight or 40 mg/kg of body weight two days later.

hCXCR4-GFP [5] = experiment: Chemotaxis assay, hCXCR4-GFP expressing 300.19 cells, CXCL12; format: cell-based, human; settings: from chemotaxis indices at 50 μM
Procedure: (§3) Cells were suspended in chemotaxis buffer (RPMI 1640, 1% fetal bovine serum, 1 mM HEPES) at a concentration of 1×10^7 cells per ml. Cell chemotaxis was determined by examining the migration of the 300.19 cells in response to administration of 50 μM test compound plus an optimized concentration of CXCL12 using a chemotaxis assay that was previously described in Basu et al. (Basu et al., Critical role for polar residues in coupling leukotriene B4 binding to signal transduction in BLT1, J. Biol. Chem. (2007) Vol. 282, pp. 10005-17). 100 μL of 300.19 cells from the above cell suspension were placed in the upper chamber of a Transwell support (Corning Costar, Cambridge, Mass.) and were separated by a 5 micron filter from a bottom chamber containing 50 μM test compound plus the optimized concentration of CXCL12 in a final bottom chamber volume of 600 μl. After 3 h of incubation at 37° C. in 5% CO2, the upper chamber was removed and cells in the lower chamber were counted in a Bürker chamber. Cell counts for all samples were normalized to a CXCL12 plus DMSO control and results are reported using this normalized measure, referred to herein as the chemotaxis index. In some instances, the IC50 concentration (i.e., the concentration at which the chemotaxis index is reduced to 50% of the chemotaxis index of the CXCL12 plus DMSO control) of the test compounds was determined. All assays were performed a minimum of four times; error bars represent the standard deviation of the mean.

hCXCR4-GFP [6] = biological target: T2, hCXCR4-GFP; experiment: as above; format: cell-based; settings: for chemotaxis index (CXCR4-mediated): 50 μM test compound plus optimized CXCL12, normalized to CXCL12 plus DMSO control
Procedure: as §3

BLT1 [7] = biological target: T1, BLT1; experiment: Chemotaxis assay, cells expressing BLT1, LTB4; format: cell-based; settings: 50 μM test compound, LTB4-induced
Procedure: as §3
To examine specificity of some of the compounds for CXCR4, their activity was tested against a non-family member class A G protein-coupled receptor, BLT1. […] I-38 and I-43 inhibited BLT1-mediated chemotaxis (0.23) and (0.045) to about the same extent as CXCR4-mediated chemotaxis (0.21) and (0.064), respectively.

T1 sequence (Q15722 whole entry, species assumed): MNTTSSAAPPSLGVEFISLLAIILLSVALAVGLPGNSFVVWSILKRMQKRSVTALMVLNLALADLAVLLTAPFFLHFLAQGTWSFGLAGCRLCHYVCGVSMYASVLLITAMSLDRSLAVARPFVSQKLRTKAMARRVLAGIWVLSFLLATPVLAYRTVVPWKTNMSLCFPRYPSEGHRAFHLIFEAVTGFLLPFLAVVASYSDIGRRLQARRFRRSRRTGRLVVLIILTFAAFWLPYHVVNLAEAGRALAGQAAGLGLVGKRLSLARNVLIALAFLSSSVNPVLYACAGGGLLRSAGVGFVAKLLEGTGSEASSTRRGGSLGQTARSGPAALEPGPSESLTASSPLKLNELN
T2 sequence (P61073 whole entry): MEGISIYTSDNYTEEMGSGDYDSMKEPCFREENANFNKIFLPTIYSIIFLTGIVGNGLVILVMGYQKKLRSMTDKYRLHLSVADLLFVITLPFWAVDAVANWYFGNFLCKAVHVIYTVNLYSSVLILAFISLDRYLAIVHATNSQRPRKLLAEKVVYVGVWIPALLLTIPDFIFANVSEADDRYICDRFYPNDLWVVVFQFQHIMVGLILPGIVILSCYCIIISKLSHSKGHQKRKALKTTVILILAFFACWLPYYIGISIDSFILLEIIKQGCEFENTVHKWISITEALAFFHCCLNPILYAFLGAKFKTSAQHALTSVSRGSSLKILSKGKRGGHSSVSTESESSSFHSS

| Structure (SMILES) | cytotoxicity, percentage of cells staining positive for PI (300.19 cells) [%] | cytotoxicity in dose response below 50 μM (300.19 cells) | IC50 (BLT1 [1]) [µM] | IC50 (MCF7 cells) [µM] | difference between CXCR4- and BLT1-mediated intracellular calcium mobilization (hCXCR4-GFP [2]) | IC50 (hCXCR4-GFP [3]) [µM] | IC50 (MDA-MB-231 cells) [µM] | proliferation inhibition, HS27 (in words) (HS27 cells) | IC50 (A549 cells) [µM] | TC-1 metastatic tumor incidence and burden in lungs (TC-1 tumor cells) | apparent toxicity (loss of body weight, signs of physiological distress) [4] | fold greater inhibition of CXCR4-mediated than BLT1-mediated chemotaxis (hCXCR4-GFP [5]) [fold] | chemotaxis index (CXCR4-mediated) (hCXCR4-GFP [6]) | chemotaxis index (BLT1-mediated) (BLT1 [7]) | proliferation inhibition, MCF7 (in words) (MCF7 cells) | IC50 (hCXCR4-GFP [6]; hCXCR4-GFP 300.19 cells, CXCL12) [µM] | proliferation inhibition, MDA-MB-231 (in words) (MDA-MB-231 cells) | proliferation inhibition, A549 (in words) (A549 cells) |
| --- | --- | --- | --- | --- | --- | --- | --- | --- | --- | --- | --- | --- | --- | --- | --- | --- | --- | --- |
| COc1cc(NCCCC(C)Nc2ccnc3cc4ccccc4cc23)c2ncccc2c1 (centres unmarked) [Compound I-9, N-(5-(6-methoxyquinolin-8-ylamino)pentan-2-yl)benzo[g]quinolin-4-amine] | 81.2 | no cytotoxicity beyond the initial 50 μM screening concentration | 20 | 5 | no significant difference | 1 | 5 | consistently inhibited cell proliferation even at concentrations nearing 1 μM | 7.5 |  |  |  |  |  |  |  |  |  |
| Cc1ccc(N2C(=O)/C(=C/Nc3ccc(S(=O)(=O)Nc4ccc(O)cc4)cc3)c3ccccc3C2=O)cc1C [Compound I-28, 4-[[2-(3,4-dimethylphenyl)-1,3-dioxo-4-isoquinolylidene]methylamino]-N-(4-hydroxyphenyl)-benzenesulfonamide] |  |  | 22.5 |  | no significant difference | 10 |  |  |  | reduced mice TC-1 metastatic tumor incidence and burden in lungs | did not induce any apparent toxicity |  |  |  |  |  |  |  |
| CN(C)c1cccc(Nc2nc3ccccc3nc2NS(=O)(=O)c2ccc([N+](=O)[O-])cc2)c1 [Compound I-25, N-[3-(3-dimethylaminophenyl)aminoquinoxalin-2-yl]-4-nitro-benzenesulfonamide] | 23.4 | no cytotoxicity beyond the initial 50 μM screening concentration | 40 |  |  | 1 | 10 | marginal proliferation inhibition at higher concentrations | 10 |  |  | 12 | 0.030 | 0.38 | only marginally inhibited cell proliferation of MCF7 cells at high concentrations |  |  |  |
| CCn1c2ccccc2c2ccc(Nc3nc4ccccc4nc3NS(=O)(=O)c3ccc(C)cc3)cc21 [Compound I-36, N-[3-(9-ethylcarbazol-2-yl)aminoquinoxalin-2-yl]-4-methyl-benzenesulfonamide] | 21.0 | no cytotoxicity beyond the initial 50 μM screening concentration |  | 12.5 |  |  | 30 | marginal proliferation inhibition at higher concentrations | 22.5 | reduced mice TC-1 metastatic tumor incidence and burden in lungs | did not induce any apparent toxicity | 3.5 | 0.12 | 0.44 |  | 1 |  |  |
| Cc1ccc(NCC(=O)Nc2ncc(Cc3cccc(C(F)(F)F)c3)s2)cc1C [Compound I-37, 2-(3,4-dimethylphenyl)amino-N-[5-[[3-(trifluoromethyl)phenyl]methyl]thiazol-2-yl]-acetamide] |  |  |  |  |  |  |  | did not inhibit proliferation for any tested cell line |  |  |  |  |  |  | did not inhibit proliferation for any tested cell line |  | did not inhibit proliferation for any tested cell line | did not inhibit proliferation for any tested cell line |

Source: patent publication US9145398B2, “Methods of treating CXCR4-expressing cancers” (University of Louisville Research Foundation, Inc., priority 2010, dated 2015)
